Test results published in PubChem BioAssay (NCI).
Where “and” joins values, the source holds several entries; their conditions need not be identical. Identical values can stand only once.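 Step 1: Grow cells in 96-well plates. Step 2: Expose to compound for 48 hours at 5 concentrations. Step 3: Interpolate endpoints linearly; if unreached, use highest concentration. The concentration for 50% growth inhibition is given as GI50. TGI is the concentration that stops growth completely.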

How the values were obtained:
Assay in all cases: growth of human tumour cells (NCI), 48 h
[1] = test system: NCI-H23 lung
[2] = test system: RXF 393 renal
[3] = test system: COLO 205 colon
[4] = test system: MALME-3M melanoma
[5] = test system: KM12 colon
[6] = test system: SF-539 CNS
[7] = test system: A498 renal
[8] = test system: UO-31 renal
[9] = test system: SNB-75 CNS
[10] = test system: OVCAR-3 ovarian

Compound | GI50 [1] [µM] | TGI [1] [µM] | GI50 [2] [µM] | TGI [2] | GI50 [3] [µM] | TGI [3] [µM] | GI50 [4] [µM] | TGI [4] | GI50 [5] [µM] | TGI [5] [µM] | GI50 [6] [µM] | TGI [6] [µM] | GI50 [7] [µM] | TGI [7] [µM] | GI50 [8] [µM] | TGI [8] | GI50 [9] [µM] | TGI [9] [µM] | GI50 [10] [µM] | TGI [10] [µM]
Cn1cc(C2=C(c3cn(CCCCO)c4ccccc34)C(=O)NC2=O)c2ccccc21 | 10.1 | > 25 | 3.92 | 10.8 µM | 7.28 | > 19.5 | > 21.6 | > 25 µM | 7.09 | > 23 | 4.91 | 16.7 | 6.32 | 22.2 | 6.33 | > 20.1 µM | 2.31 | > 25 | 8.09 | > 25
CC1c2c(Cl)nc3ccccc3c2Oc2c1c(Cl)nc1ccccc21 | – | > 100 | – | > 100 µM | – | > 100 | – | > 100 µM | – | > 100 | – | > 100 | – | > 100 | – | > 100 µM | – | > 100 | – | > 100
CCCN1C(=O)N(CCC)C2C1NC(=S)N2/N=C/C=C/c1ccccc1OC (configuration not stated) | 2.66 | > 100 | 0.484 | 85.9 µM | 0.52 | 9.09 | 0.694 | 82.1 µM | 0.422 | > 100 | 0.33 | 2.31 | 0.203 | 1 | 1.26 | > 100 µM | 0.233 | 2.3 | 0.273 | 0.815
C=C(Cl)C(Br)(CCl)CCC(Br)C(C)(C)Cl (configuration not stated) | 2.46 | 5.57 | – | 6.98 µM and 5.42 µM | 2.13 | 4.64 | 2.22 | 8.51 µM and 4.96 µM | 2.94 | 9.46 | 1.98 | 3.86 | – | 35.3 | 2.17 | 8.19 µM and 4.53 µM | – | 11 | 2.01 | 3.73
Clc1ccc2[nH]cc(-c3nnnn3-c3ccccc3)c2c1 | 8.11 | 49.9 | 32.2 | > 100 µM | 23.1 | > 57.8 | 13.5 | > 56.5 µM | 2.99 | 19 | 16.5 | 39 | 8.39 | 36.8 | 26.9 | > 100 µM | 6.25 | 30.8 | 6.66 | > 42.5
CCOC(=O)C(Cc1ccc(CCCC(=O)NCCC(=O)Nc2ccc3nc(C)sc3c2)cc1)C(=O)OCC | 28.9 | > 93.7 | 36.4 | > 100 µM | 32.3 | > 96.4 | 28.3 | > 84.4 µM | 33.4 | > 100 | 42.5 | > 82.6 | > 100 | > 100 | 26.9 | > 76.8 µM | > 52.1 | > 100 | 54.9 | > 100
N#CC(C(=O)C(=O)C(C#N)c1ccc(Br)cc1)c1ccc(Br)cc1 (configuration not stated) | – | 14.1 | – | 9.01 µM | – | 31.4 | – | 27.7 µM | – | 22.4 | – | 29.4 | – | 29.3 | – | 29.9 µM | – | 17.7 | – | 21.4
O=C(O)Cc1cc(Cl)ccc1O | – | > 100 | – | > 100 µM | – | > 100 | – | > 100 µM | – | > 100 | – | > 100 | – | > 100 | – | > 100 µM | – | > 100 | – | > 100
